{
  "source": "the Kinase Knowledgebase extract (Sharma et al. 2016)",
  "target": "EGFR (human) (UniProt P00533)",
  "sequence (P00533 whole entry, looked up)": "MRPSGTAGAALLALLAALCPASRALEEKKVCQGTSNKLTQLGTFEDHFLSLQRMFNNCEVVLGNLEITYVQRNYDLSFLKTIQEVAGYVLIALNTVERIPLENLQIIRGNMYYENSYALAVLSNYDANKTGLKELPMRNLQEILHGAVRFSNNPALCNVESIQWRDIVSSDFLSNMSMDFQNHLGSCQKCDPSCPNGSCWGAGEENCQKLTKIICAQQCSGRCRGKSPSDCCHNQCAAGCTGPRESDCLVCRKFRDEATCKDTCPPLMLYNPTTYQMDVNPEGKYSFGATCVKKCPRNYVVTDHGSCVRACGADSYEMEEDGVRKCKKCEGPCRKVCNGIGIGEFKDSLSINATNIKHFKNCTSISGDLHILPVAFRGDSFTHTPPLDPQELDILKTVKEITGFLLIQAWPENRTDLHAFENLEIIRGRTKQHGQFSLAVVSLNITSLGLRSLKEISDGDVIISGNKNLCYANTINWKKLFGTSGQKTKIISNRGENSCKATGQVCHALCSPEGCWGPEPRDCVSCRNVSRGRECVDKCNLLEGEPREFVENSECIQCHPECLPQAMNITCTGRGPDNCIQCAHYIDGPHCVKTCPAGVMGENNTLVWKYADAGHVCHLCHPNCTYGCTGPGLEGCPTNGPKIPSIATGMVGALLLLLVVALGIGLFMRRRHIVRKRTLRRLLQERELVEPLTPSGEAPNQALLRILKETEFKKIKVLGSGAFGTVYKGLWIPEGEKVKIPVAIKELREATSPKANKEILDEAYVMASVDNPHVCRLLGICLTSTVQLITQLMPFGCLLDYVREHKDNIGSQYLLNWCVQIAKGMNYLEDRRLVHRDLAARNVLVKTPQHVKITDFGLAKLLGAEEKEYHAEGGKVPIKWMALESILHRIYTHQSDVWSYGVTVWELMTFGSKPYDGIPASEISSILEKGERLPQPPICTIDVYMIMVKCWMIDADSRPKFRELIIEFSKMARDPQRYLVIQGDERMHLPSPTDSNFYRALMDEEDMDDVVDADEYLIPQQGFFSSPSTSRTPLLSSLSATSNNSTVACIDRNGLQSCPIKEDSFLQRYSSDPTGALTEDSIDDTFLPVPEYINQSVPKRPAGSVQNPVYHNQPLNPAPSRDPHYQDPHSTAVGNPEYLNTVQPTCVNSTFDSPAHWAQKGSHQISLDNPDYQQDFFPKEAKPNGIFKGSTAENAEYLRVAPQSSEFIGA",
  "data": [
    {"smiles": "CN(N=Cc1ccc2ncnc(Nc3ccc(COc4cccc(F)c4)c(Cl)c3)c2c1)c1ccccc1", "values": [
      {"measurement": "IC50", "result": 426, "unit": "nM"}
    ]},
    {"smiles": "CC#CC(=NOC[C@@H]1C[C@H](O)CN1)c1ccc2ncnc(Nc3ccc4c(cnn4Cc4cccc(F)c4)c3)c2c1", "values": [
      {"measurement": "IC50", "result": 9.7, "unit": "nM"}
    ]},
    {"smiles": "CC#CC(=NOC[C@H]1COCCN1)c1ccc2ncnc(Nc3ccc(OCc4cccc(F)c4)c(Cl)c3)c2c1", "values": [
      {"measurement": "IC50", "result": 118, "unit": "nM"}
    ]},
    {"smiles": "C#CCN1CCC[C@H]1CON=C(C#CC)c1ccc2ncnc(Nc3ccc(OCc4cccc(F)c4)c(Cl)c3)c2c1", "values": [
      {"measurement": "IC50", "result": 275, "unit": "nM"}
    ]},
    {"smiles": "Fc1cccc(OCc2ccc(Nc3ncnc4ccc(C=NN5CCCCC5)cc34)cc2Cl)c1", "values": [
      {"measurement": "IC50", "result": 193, "unit": "nM"}
    ]},
    {"smiles": "CC#CC(=NOCC(=O)NCCO)c1ccc2ncnc(Nc3ccc(COc4cccc(F)c4)c(Cl)c3)c2c1", "values": [
      {"measurement": "IC50", "result": 122, "unit": "nM"}
    ]},
    {"smiles": "CC#CC(=NOCC(=O)NCCN(C)C)c1ccc2ncnc(Nc3ccc(COc4cccc(F)c4)c(Cl)c3)c2c1", "values": [
      {"measurement": "IC50", "result": 20, "unit": "nM"}
    ]},
    {"smiles": "CC#CC(=NOC[C@@H]1COCCN1)c1ccc2ncnc(Nc3ccc(OCc4cccc(F)c4)c(Cl)c3)c2c1", "values": [
      {"measurement": "IC50", "result": 101, "unit": "nM"}
    ]},
    {"smiles": "CC#CC(=NOCC(=O)NCCOS(C)(=O)=O)c1ccc2ncnc(Nc3ccc(COc4cccc(F)c4)c(Cl)c3)c2c1", "values": [
      {"measurement": "IC50", "result": 47, "unit": "nM"}
    ]},
    {"smiles": "COC[C@@H]1CCCN1N=Cc1ccc2ncnc(Nc3ccc(COc4cccc(F)c4)c(Cl)c3)c2c1", "values": [
      {"measurement": "IC50", "result": 344, "unit": "nM"}
    ]},
    {"smiles": "CC#CC(=NOC[C@@H]1COCCN1)c1ccc2ncnc(Nc3ccc(OCc4ccccn4)c(Cl)c3)c2c1", "values": [
      {"measurement": "IC50", "result": 6.2, "unit": "nM"}
    ]}
  ]
}
